Assay results published in article PMC10344917, “Affinity and cooperativity modulate ternary complex formation to drive targeted protein degradation” (Nature Communications, 2023).
Like-named read-outs stand apart in the source and are kept apart here.

Assays:
[1] = biological target: T1, VHL/EloB/EloC (VBC) (Homo sapiens, UniProt P40337); assay: SPR binary binding of PROTAC to VBC-functionalized surface
T1 construct: VHL (54-213), ElonginB (17-112) ElonginC (1-104); made in house
Description: (§1) SPR experiments were performed on a Biacore 8 K or T200 instrument (Cytiva). […] The running buffer during immobilization was PBS with 0.005% P20. Either high-density (3000-4000 RU) or low-density (300-400 RU) VBC-functionalized surfaces were created, followed by equilibration in the running buffer for 3 h.
PROTACs (10 mM stocks in 100% DMSO) were diluted to 400 nM in a running buffer (20 mM Tris pH 7.5, 200 mM NaCl, 0.02% P20). This stock solution was then serially diluted in the running buffer containing final 2% DMSO. […] For SMARCA2 analysis, biotinylated proteins were introduced on a Series S streptavidin (SA) sensor chip at high-density (3000-4000 RU).
(§2) Raw sensorgrams were processed by performing double reference subtraction, solvent correction, and analysis was done using Biacore Insight Evaluation Software. Kinetic analysis was performed by fitting data to a 1:1 Langmuir interaction model and a steady-state affinity model was used to evaluate equilibrium binding affinity.

[2] = biological target: T2, VBC / BRD4^BD1 ternary complex (Homo sapiens, UniProt O60885+P40337); assay: SPR ternary complex binding, VBC surface with preformed PROTAC/BRD4 BD1 complex; settings: for Kd: SPR, VHL, PROTAC, error SEM, N = 3, read-out: KLPT (ternary complex binding affinity)
T2 construct: VHL (54-213), ElonginB (17-112) ElonginC (1-104); BRD4 (44-168); His6 (N, cleaved yes); made in house
Description: as §1
(§3) PROTACs (10 mM in 100% DMSO) were initially prepared at 200 nM in a running buffer (20 mM Tris pH 8.0, 250 mM NaCl, 1 mM TCEP, 0.01% P20, 0.2 mg/ml BSA) with a concentration of 2% DMSO. This solution was mixed at 1:1 ratio with a solution of 5 μM of the SMARCA2 or BRD4 bromodomain protein in the running buffer. […] For ternary experiments, solutions were injected sequentially in single-cycle kinetic format without regeneration (contact time 60 s, flow rate 80 μL/min, dissociation time 300 s) using a stabilization period of 60 s and syringe wash (50% DMSO) between injections onto a low-density VBC-functionalized surface.
as §2

[3] = biological target: T3, BRD4 (Homo sapiens, UniProt O60885); assay: BRD4 degradation, MSD assay, dose response; type: cell-based; parameters: AUC (area under the dose-response curve): unit not given beside the values; settings: A375 cells; for Dmax: A-375, BRD4 degraded; for Dmax / DC50: MSD assay, 4 h timepoint; for AUC (area under the dose-response curve): BRD4 MSD assay, 4 h; for DC50: BRD4 degradation
T3 construct: endogenous in cells; host or cells: A375
Description: A375 cells were treated with SMARCA2 or BRD4 degraders for 2 h (4 h for BRD4) and generated lysates. SMARCA2 or BRD4 protein was measured with a variation of a sandwich ELISA that was assembled from commercially available antibodies as well as reagents and instrumentation procured from Meso Scale Discovery (MSD). Degradation parameter, DC50, is not suitable for PROTACs that induce partial/incomplete DR curves at a fixed time point; maximum drop in target protein level (Dmax) >>0. Conversely, the area under the curve (AUC) can be calculated as a degradation activity parameter for any DR curve, and it encompasses both the degradation potency (i.e., DC50) and efficacy (i.e., Dmax) of PROTACs.
A 1:3 compound dose-response titration was diluted in growth media (1:20), added to appropriate wells of a cell culture plate (1:10) and then assay plates were incubated at 37 °C, 5% CO2.
Plates were washed with 300 µL per well MSD wash buffer (MSD R61TX-1) between each step. Following the last incubation, plates were washed with MSD wash buffer then 150 µL of MSD read buffer (MSD R92TC-2) was added to each well. Plates were immediately read on a MSD plate reader (MSD Sector Imager 6000).
(§4) MSD electrochemiluminescence signals were subtracted by the average background signal from wells with lysis buffer alone. Normalized MSD values (POC) for individual compound treated wells were acquired by dividing background-subtracted assay signal by signal from vehicle control wells (cells + 0.1% DMSO) and multiplying by 100. This POC data was graphed using a nonlinear regression curve fit xy analysis and a log(inhibitor) vs response —variable slope (four parameter) model for dose response curves (Graphpad Prism 9, San Diego, CA, USA). To calculate area under the curve, all points on the curve were connected and vertical lines were drawn from each point down to y = 0, generating a series of trapezoids. The area of each trapezoid was determined using the equation A = (1/2)(h)(b1 + b2), where h = 1 (distance between points), b1 = POC of the first point and b2 = POC of the second point. The sum of all trapezoids provides an approximate area under the curve (AUC). For half-life (t1/2) determination in time course studies, a one-phase decay model was used for curve fitting and the time at which the curve crossed 50 POC was determined through interpolation (Graphpad Prism 9, San Diego, CA, USA).

[4] = biological target: T4, BRD4^BD2 (Homo sapiens, UniProt O60885); assay: SPR binary binding of PROTAC to BRD4^BD2-functionalized surface; settings: 1:1 Langmuir binding model, SD N=2
T4 construct: ternary complex formation with both bromodomains, BRD4^BD1 and BRD4^BD2, independently; made in house

[5] = biological target: T5, VBC / BRD4^BD2 ternary complex (Homo sapiens, UniProt O60885+P40337); assay: SPR ternary complex binding, VBC surface with preformed PROTAC/BRD4 BD2 complex; settings: for Kd: SPR, VHL, PROTAC, error SEM, N = 3, read-out: KLPT (ternary complex binding affinity)
T5 construct: VHL (54-213), ElonginB (17-112) ElonginC (1-104); ternary complex formation with both bromodomains, BRD4^BD1 and BRD4^BD2, independently; His6 (N); made in house
Description: as §1, §3, §2

[6] = biological target: T3, BRD4; assay: BRD4 degradation time course in A375 cells (MSD); type: cell-based; settings: single concentration at or near maximal activity
From the text: To measure the rate of protein degradation, we treated A375 cells with a single concentration of each PROTAC and measured the decrease in target abundance over time as shown in Figs. 4b and5b.
as §4

[7] = biological target: T6, BRD4-NanoLuc (Homo sapiens, UniProt O60885); assay: NanoBRET target engagement assay, live and permeabilized HEK293 cells (BRD4); type: cell-based; settings: for Availability Index: RBA test cmpd / RBA of JQ1 benchmark, surrogate for permeability; for IC50: BRD4 NanoBRET TE
T6 construct: expressed in transfected cells; host or cells: HEK293
Description: We employed a NanoBRET-based target engagement (TE) assay as reported earlier^7 for evaluating PROTACs relative permeability. In summary, live and permeabilized HEK293 cells with SMARCA2 or BRD4-NanoLuc were used for measuring IC50 values of different PROTACs. The relative shift in the IC50 was evaluated as relative binding affinity (RBA) by taking the ratio of IC50 values of live and permeabilized cells. Availability index (AI), which is a surrogate for permeability can be calculated by taking a ratio of RBA of compounds to permeable benchmark molecules.
Relative Binding Affinity (RBA) = Live-cell TE IC50 / Permeabilized-cell TE IC50
Availability Index (AI) = RBAtest cmpd / RBApermeable benchmark
Availability Index (AI) greater than one is indicative of reduced permeability compared to the benchmark.

[8] = SPR, error SEM, N = 3, read-out: KLP (binary binding affinity between E3 ligase VHL and PROTAC)
[9] = live HEK293 cells, read-out: Live-Cell TE
[10] = permeabilized HEK293 cells, read-out: Permeabilized-Cell TE

SMILES | Kd [1, 8] [µM] | α (cooperativity, KLP/KLPT) [2] | Kd [2] [µM] | Dmax [3] [%] | AUC (area under the dose-response curve) [3] | DC50 [3] [µM] | Kd [4] [µM] | α (cooperativity, KLP/KLPT) [5] | Kd [5] [µM] | Initial Degradation Rate [6] [%/min] | Availability Index [7] | IC50 [7, 9] [µM] | IC50 [7, 10] [µM] | Kd [1] [µM]
Cc1ncsc1-c1ccc(CNC(=O)[C@@H]2C[C@@H](O)CN2C(=O)[C@@H](NC(=O)COCCOCCOCc2cn(CCNC(=O)C[C@@H]3N=C(c4ccc(Cl)cc4)c4c(sc(C)c4C)-n4c(C)nnc43)nn2)C(C)(C)C)cc1 [Compound 14, (2S,4R)-1-((S)-12-(tert-butyl)-1-(1-(2-(2-((S)-4-(4-chlorophenyl)-2,3,9-trimethyl-6H-thieno[3,2-f][1,2,4]triazolo[4,3-a][1,4]diazepin-6-yl)acetamido)ethyl)-1H-1,2,3-triazol-4-yl)-10-oxo-2,5,8-trioxa-11-azatridecan-13-oyl)-4-hydroxy-N-(4-(4-methylthiazol-5-yl)benzyl)pyrrolidine-2-carboxamide] | 0.026 ± 0.005 | 0.8 | 0.033 ± 0.004 | 69 | 460 | 2.26 | 0.0096 ± 0.0009 | 1 | 0.0265 ± 0.004 | 0.46 | 126.63 | 12.6 | 0.1 | –
Cc1ncsc1-c1ccc(CNC(=O)[C@@H]2C[C@@H](O)CN2C(=O)[C@@H](NC(=O)COCCOCCOCCOCCOCc2cn(CCNC(=O)C[C@@H]3N=C(c4ccc(Cl)cc4)c4c(sc(C)c4C)-n4c(C)nnc43)nn2)C(C)(C)C)cc1 [Compound 16, (2S,4R)-1-((S)-18-(tert-butyl)-1-(1-(2-(2-((S)-4-(4-chlorophenyl)-2,3,9-trimethyl-6H-thieno[3,2-f][1,2,4]triazolo[4,3-a][1,4]diazepin-6-yl)acetamido)ethyl)-1H-1,2,3-triazol-4-yl)-16-oxo-2,5,8,11,14-pentaoxa-17-azanonadecan-19-oyl)-4-hydroxy-N-(4-(4-methylthiazol-5-yl)benzyl)pyrrolidine-2-carboxamide] | – | 1 | 0.033 ± 0.005 | – | 900 | > 10 | 0.0158 ± 0.002 | 0.7 | 0.049 ± 0.006 | 0.08 | 164.81 | 18 | 0.11 | 0.033 ± 0.005
Cc1ncsc1-c1ccc(CNC(=O)[C@@H]2C[C@@H](O)CN2C(=O)[C@@H](NC(=O)COCCOCCOCCOCc2cn(CCNC(=O)C[C@@H]3N=C(c4ccc(Cl)cc4)c4c(sc(C)c4C)-n4c(C)nnc43)nn2)C(C)(C)C)cc1 [Compound 15, (2S,4R)-1-((S)-15-(tert-butyl)-1-(1-(2-(2-((S)-4-(4-chlorophenyl)-2,3,9-trimethyl-6H-thieno[3,2-f][1,2,4]triazolo[4,3-a][1,4]diazepin-6-yl)acetamido)ethyl)-1H-1,2,3-triazol-4-yl)-13-oxo-2,5,8,11-tetraoxa-14-azahexadecan-16-oyl)-4-hydroxy-N-(4-(4-methylthiazol-5-yl)benzyl)pyrrolidine-2-carboxamide] | 0.031 ± 0.004 | 1.2 | 0.0265 ± 0.004 | – | 733 | > 10 | 0.0162 ± 0.0026 | 0.8 | 0.039 ± 0.005 | 0.21 | 34.23 | 3.92 | 0.11 | –
Cc1ncsc1-c1ccc(CNC(=O)[C@@H]2C[C@@H](O)CN2C(=O)[C@@H](NC(=O)COCc2cn(CCNC(=O)C[C@@H]3N=C(c4ccc(Cl)cc4)c4c(sc(C)c4C)-n4c(C)nnc43)nn2)C(C)(C)C)cc1 [Compound 12, (2S,4R)-1-((S)-2-(2-((1-(2-(2-((S)-4-(4-chlorophenyl)-2,3,9-trimethyl-6H-thieno[3,2-f][1,2,4]triazolo[4,3-a][1,4]diazepin-6-yl)acetamido)ethyl)-1H-1,2,3-triazol-4-yl)methoxy)acetamido)-3,3-dimethylbutanoyl)-4-hydroxy-N-(4-(4-methylthiazol-5-yl)benzyl)pyrrolidine-2-carboxamide] | 0.022 ± 0.002 | 0.7 | 0.031 ± 0.004 | 91 | 192 | 0.518 | 0.0205 ± 0.0012 | 3.7 | 0.006 ± 0.001 | 1.38 | 264.47 | 21.6 | 0.08 | –
